From EP1019392B1, “TRICYCLIC AMIDES USEFUL FOR INHIBITION OF G-PROTEIN FUNCTION AND FOR TREATMENT OF PROLIFERATIVE DISEASES” (SCHERING CORPORATION, priority 1995, dated 1997)
Where two headings read alike, the source gives them in different places.

What was measured:
[1] = biological target: T1, geranylgeranyl protein transferase (GGPT) I (Rattus norvegicus, UniProt P53610+Q04631); assay: In vitro enzyme assay: inhibition of geranylgeranyl protein transferase I (Ras-CVLL as acceptor); assay type: biochemical; conditions: Table 2; Ras-CVLL as isoprenoid acceptor
T1 construct: geranylgeranyl protein transferase (GGPT) I were partially purified from rat brain; from tissue; host or cells: rat brain
Text: • 1. In vitro enzyme assays: Inhibition of farnesyl protein transferase and geranylgeranyl protein transferase. Both farnesyl protein transferase (FPT) and geranylgeranyl protein transferase (GGPT) I were partially purified from rat brain by ammonium sulfate fractionation followed by Q-Sepharose (Pharmacia, Inc.) anion exchange chromatography essentially as described by Yokoyama et al (Yokoyama, K., et al., (1991), A protein geranylgeranyltransferase from bovine brain: Implications for protein prenylation specificity, Proc. Natl. Acad. Sci USA 88: 5302-5306, the disclosure of which is incorporated herein by reference thereto). Human farnesyl protein transferase was also expressed in E. coli, using cDNA clones encoding both the a and b subunits. The methods used were similar to those published (Omer, C. et al., (1993), Characterization of recombinant human farnesyl protein transferase: Cloning, expression, farnesyl diphosphate binding, and functional homology with yeast prenyl-protein transferases, Biochemistry 32:5167-5176). Human farnesyl protein transferase was partially-purified from the soluble protein fraction of E. coli as described above. The tricyclic farnesyl protein transferase inhibitors disclosed herein inhibited both human and rat enzyme with similar potencies. Two forms of val^12-Ha-Ras protein were prepared as substrates for these enzymes, differing in their carboxy terminal sequence. One form terminated in cysteine-valine-leucine-serine (Ras-CVLS) the other in cystein-valine-leucine-leucine (Ras-CVLL). Ras-CVLS is a substrate for the farnesyl protein transferase while Ras-CVLL is a substrate for geranylgeranyl protein transferase I. The cDNAs encoding these proteins were constructed so that the proteins contain an amino-terminal extension of 6 histidine residues. Both proteins were expressed in Escherichia coli and purified using metal chelate affinity chromatography. The radiolabelled isoprenyl pyrophosphate substrates, [^3H]farnesyl pyrophosphate and [^3H]geranylgeranyl pyrophosphate, were purchased from DuPont/New England Nuclear. Several methods for measuring farnesyl protein transferase activity have been described (Reiss et al 1990, Cell 62: 81; Schaber et al 1990, J. Biol. Chem. 265: 14701; Manne et al 1990, PNAS 87: 7541; and Barbacid & Manne 1993, U.S. Patent No. 5,185,248). The activity was assayed by measuring the transfer of [^3H]farnesyl from [^3H]farnesyl pyrophosphate to Ras-CVLS using conditions similar to those described by Reiss et al. 1990 (Cell 62: 81) The reaction mixture contained 40 mM Hepes, pH 7.5; 20 mM magnesium chloride; 5 mM dithiothreitol; 0.25 µM [^3H]farnesyl pyrophosphate; […] Q-Sepharose-purified farnesyl protein transferase; the indicated concentration of tricyclic compound or dimethylsulfoxide (DMSO) vehicle control (5% DMSO final); and […] Ras-CVLS in a total volume of […]. The reaction was allowed to proceed for 30 minutes at room temperature and then stopped with 0.5 ml of 4% sodium dodecyl sulfate (SDS) followed by 0.5 ml of cold 30% TCA. Samples were allowed to sit on ice for 45 minutes and precipitated Ras protein was then collected on GF/C filter paper mats using a Brandel cell harvester. Filter mats were washed once with 6% TCA, 2% SDS and radioactivity was measured in a Wallac 1204 Betaplate BS liquid scintillation counter. Percent inhibition was calculated relative to the DMSO vehicle control. The geranylgeranyl protein transferase I assay was essentially identical to the farnesyl protein transferase assay described above, with two exceptions: [^3H]geranylgeranylpyrophosphate replaced farnesyl pyrophosphate as the isoprenoid donor and Ras-CVLL was the protein acceptor. This is similar to the assay reported by Casey et al (Casey, P.J., et al., (1991), Enzymatic modification of proteins with a geranylgeranyl isoprenoid, Proc. Natl. Acad. Sci, USA 88: 8631-8635, the disclosure of which is incorporated herein by reference thereto). • 2. […]

[2] = biological target: T2, farnesyl protein transferase (FPT) (Rattus norvegicus, UniProt Q02293+Q04631); assay: In vitro enzyme assay: inhibition of farnesyl protein transferase (transfer of [3H]farnesyl to Ras-CVLS); assay type: biochemical
T2 construct: were partially purified from rat brain by ammonium sulfate fractionation followed by Q-Sepharose; from tissue; host or cells: rat brain
Description: • 1. In vitro enzyme assays: Inhibition of farnesyl protein transferase and geranylgeranyl protein transferase. […] Human farnesyl protein transferase was also expressed in E. coli, using cDNA clones encoding both the a and b subunits. […] Human farnesyl protein transferase was partially-purified from the soluble protein fraction of E. coli as described above. […] Two forms of val^12-Ha-Ras protein were prepared as substrates for these enzymes, differing in their carboxy terminal sequence. One form terminated in cysteine-valine-leucine-serine (Ras-CVLS) the other in cystein-valine-leucine-leucine (Ras-CVLL). Ras-CVLS is a substrate for the farnesyl protein transferase while Ras-CVLL is a substrate for geranylgeranyl protein transferase I. The cDNAs encoding these proteins were constructed so that the proteins contain an amino-terminal extension of 6 histidine residues. Both proteins were expressed in Escherichia coli and purified using metal chelate affinity chromatography. The radiolabelled isoprenyl pyrophosphate substrates, [^3H]farnesyl pyrophosphate and [^3H]geranylgeranyl pyrophosphate, were purchased from DuPont/New England Nuclear. […] The reaction was allowed to proceed for 30 minutes at room temperature and then stopped with 0.5 ml of 4% sodium dodecyl sulfate (SDS) followed by 0.5 ml of cold 30% TCA. Samples were allowed to sit on ice for 45 minutes and precipitated Ras protein was then collected on GF/C filter paper mats using a Brandel cell harvester. […] Percent inhibition was calculated relative to the DMSO vehicle control. The geranylgeranyl protein transferase I assay was essentially identical to the farnesyl protein transferase assay described above, with two exceptions: [^3H]geranylgeranylpyrophosphate replaced farnesyl pyrophosphate as the isoprenoid donor and Ras-CVLL was the protein acceptor. […] Cell-Based Assay: Transient expression of val^12-Ha-Ras-CVLS and val^12-Ha-Ras-CVLL in COS monkey kidney cells: Effect of farnesyl protein transferase inhibitors on Ras processing and on disordered cell growth induced by transforming Ras. COS monkey kidney cells were transfected by electroporation with the plasmid pSV-SPORT (Gibco/BRL) containing a cDNA insert encoding either Ras-CVLS or Ras-CVLL, leading to transient overexpression of a Ras substrate for either farnesyl protein transferase or geranylgeranyl protein transferase I, respectively (see above). Following electroporation, cells were plated into 6-well tissue culture dishes containing 1.5 ml of Dulbecco's-modified Eagle's media (GIBCO, Inc.) supplemented with 10% fetal calf serum and the appropriate farnesyl protein transferase inhibitors. After 24 hours, media was removed and fresh media containing the appropriate drugs was re-added. 48 hours after electroporation cells were examined under the microscope to monitor disordered cell growth induced by transforming Ras. Cells expressing transforming Ras become more rounded and refractile and overgrow the monolayer, reminiscent of the transformed phenotype. Cells were then photographed, washed twice with 1 ml of cold phosphate-buffered saline (PBS) and removed from the dish by scraping with a rubber policeman into 1 ml of a buffer containing 25 mM Tris, pH 8.0; 1 mM ethylenediamine tetraacetic acid; 1 mM phenylmethylsulfonyl fluoride; […] leupeptin; and 0.1 mM pepstatin. Cells were lysed by homogenization and cell debris was removed by centrifugation at 2000 x g for 10 min. Cellular protein was precipitated by addition of ice-cold trichloroacetic acid and redissolved in […] of SDS-electrophoresis sample buffer. […] Proteins resolved on the gels were electroblotted onto nitrocellulose membranes for immunodetection. […] After washing, membranes were incubated for one hour at room temperature with a 1:5000 dilution of secondary antibody, rabbit anti-rat IgG conjugated to horseradish peroxidase, in PBS containing 1% fetal calf serum.

[3] = system: SW620-BAG human colon carcinoma cells expressing an activated K-ras gene; assay: Cell Mat Assay, SW620 tumor cells; assay type: cell-based; conditions: Mat assay
[4] = system: Normal human HEPM fibroblasts; assay: Cell Mat Assay, normal cell mat; assay type: cell-based; conditions: normal monolayer
[5] = system: Ras-CVLS processing in COS monkey kidney cells; assay: COS cell assay: inhibition of Ras-CVLS processing (Western blot); assay type: cell-based
Text: • 1. In vitro enzyme assays: Inhibition of farnesyl protein transferase and geranylgeranyl protein transferase. Both farnesyl protein transferase (FPT) and geranylgeranyl protein transferase (GGPT) I were partially purified from rat brain by ammonium sulfate fractionation followed by Q-Sepharose (Pharmacia, Inc.) anion exchange chromatography essentially as described by Yokoyama et al (Yokoyama, K., et al., (1991), A protein geranylgeranyltransferase from bovine brain: Implications for protein prenylation specificity, Proc. Natl. Acad. Sci USA 88: 5302-5306, the disclosure of which is incorporated herein by reference thereto). Human farnesyl protein transferase was also expressed in E. coli, using cDNA clones encoding both the a and b subunits. The methods used were similar to those published (Omer, C. et al., (1993), Characterization of recombinant human farnesyl protein transferase: Cloning, expression, farnesyl diphosphate binding, and functional homology with yeast prenyl-protein transferases, Biochemistry 32:5167-5176). Human farnesyl protein transferase was partially-purified from the soluble protein fraction of E. coli as described above. […] Two forms of val^12-Ha-Ras protein were prepared as substrates for these enzymes, differing in their carboxy terminal sequence. One form terminated in cysteine-valine-leucine-serine (Ras-CVLS) the other in cystein-valine-leucine-leucine (Ras-CVLL). Ras-CVLS is a substrate for the farnesyl protein transferase while Ras-CVLL is a substrate for geranylgeranyl protein transferase I. The cDNAs encoding these proteins were constructed so that the proteins contain an amino-terminal extension of 6 histidine residues. Both proteins were expressed in Escherichia coli and purified using metal chelate affinity chromatography. The radiolabelled isoprenyl pyrophosphate substrates, [^3H]farnesyl pyrophosphate and [^3H]geranylgeranyl pyrophosphate, were purchased from DuPont/New England Nuclear. Several methods for measuring farnesyl protein transferase activity have been described (Reiss et al 1990, Cell 62: 81; Schaber et al 1990, J. Biol. Chem. 265: 14701; Manne et al 1990, PNAS 87: 7541; and Barbacid & Manne 1993, U.S. Patent No. 5,185,248). […] The reaction was allowed to proceed for 30 minutes at room temperature and then stopped with 0.5 ml of 4% sodium dodecyl sulfate (SDS) followed by 0.5 ml of cold 30% TCA. Samples were allowed to sit on ice for 45 minutes and precipitated Ras protein was then collected on GF/C filter paper mats using a Brandel cell harvester. Filter mats were washed once with 6% TCA, 2% SDS and radioactivity was measured in a Wallac 1204 Betaplate BS liquid scintillation counter. Percent inhibition was calculated relative to the DMSO vehicle control. The geranylgeranyl protein transferase I assay was essentially identical to the farnesyl protein transferase assay described above, with two exceptions: [^3H]geranylgeranylpyrophosphate replaced farnesyl pyrophosphate as the isoprenoid donor and Ras-CVLL was the protein acceptor. […] Cell-Based Assay: Transient expression of val^12-Ha-Ras-CVLS and val^12-Ha-Ras-CVLL in COS monkey kidney cells: Effect of farnesyl protein transferase inhibitors on Ras processing and on disordered cell growth induced by transforming Ras. COS monkey kidney cells were transfected by electroporation with the plasmid pSV-SPORT (Gibco/BRL) containing a cDNA insert encoding either Ras-CVLS or Ras-CVLL, leading to transient overexpression of a Ras substrate for either farnesyl protein transferase or geranylgeranyl protein transferase I, respectively (see above). Following electroporation, cells were plated into 6-well tissue culture dishes containing 1.5 ml of Dulbecco's-modified Eagle's media (GIBCO, Inc.) supplemented with 10% fetal calf serum and the appropriate farnesyl protein transferase inhibitors. After 24 hours, media was removed and fresh media containing the appropriate drugs was re-added.

[6] = system: T24-BAG4 human bladder carcinoma cells expressing an activated H-ras gene; assay: Cell Mat Assay, T24 tumor cells; assay type: cell-based; conditions: read-out: Tumor (T-24) IC50
[7] = system: DLD-1-BAG human colon carcinoma cells expressing as activated K-ras gene; assay: Cell Mat Assay, DLD-1 tumor cells; assay type: cell-based; conditions: Mat assay
[8] = system: DLD-1 (human colon carcinoma cells, ATCC # CCL 221); assay: In Vivo Anti-Tumor Studies, subcutaneous DLD-1 tumors; parameters: species or system athymic nu/nu female mice; conditions: Mus musculus, DLD-1, po, QID, 4 weeks, range over the listed compounds; for inhibition in vivo at 10 mg/kg: 10 mg/kg p.o.; for inhibition in vivo at 50 mg/kg: 50 mg/kg p.o.
Text: Tumor cells (5 X 10^5 to 8 X 10^6) of DLD-1 (human colon carcinoma cells, ATCC # CCL 221) are innolculated subcutaneously into the flank of 5-6 week o;d athymic nu/nu female mice.

[9] = Table 2, comparison with GGPT, read-out: ENZYME INHIBITION FPT IC50

IC50 ([6]; Homo sapiens) | IC50 ([2]; Table 1, partially purified rat brain FPT, Ras-CVLS, read-out: FPT IC50) | Compound | IC50 [1] | IC50 ([2]; FPT IC50, Table 1, partially purified rat brain FPT, Ras-CVLS) | IC50 [2, 9] | IC50 [3] | IC50 [4] | IC50 [5] | IC50 [6] | IC50 [7] | inhibition in vivo at 10 mg/kg [8] | inhibition in vivo at 50 mg/kg [8] | IC50 ([4]; Homo sapiens, Fibroblast)
 |  | O=C(Cc1cc[n+]([O-])cc1)N1CCC(=C2c3ncc(Br)cc3CCc3cc(Cl)cc(Br)c32)CC1 (single isomer, unassigned) [Example 7B] | > 66000 nM | < 3 nM | < 3 nM |  |  |  |  |  |  |  | 
 |  | NC(=O)N1CCC(CC(=O)N2CCC(=C3c4ncc(Br)cc4CCc4cc(Cl)cc(Br)c43)CC2)CC1 (single isomer, unassigned) [Example 8B] | > 60000 nM |  |  | 3100 nM | > 25000 nM | 280 nM | < 1600 nM | < 1600 nM | 7 to 50% | 35.4 to 83% | 
3100 nM | 46 nM | NC(=O)N1CCC(CC(=O)N2CCC(C3c4ccc(Cl)cc4CCc4cc(Br)cnc43)CC2)CC1 (stereo not drawn) [Example 4] | > 35700 nM |  | 46 nM |  |  |  |  |  | 7 to 50% | 35.4 to 83% | > 25000 nM
